Source: ChEMBL document CHEMBL1201862, “PubChem BioAssay data set” (2004)
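Grown in 96-well plates, cells were treated for 48 hours with each compound at five concentrations. Insufficient inhibition: endpoint recorded as highest concentration tested. GI50 = concentration required for 50% inhibition of growth.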 Activity calls are given as the source filed them. Cut-off read from the data, not from the text of the source: active = GI50 up to about 1.1 µM and inactive = higher.

What was measured:
Experiment in all cases: growth of human tumour cells (NCI), 48 h
[1] = test system: NCI/ADR-RES
[2] = test system: 786-0
[3] = test system: ACHN
[4] = test system: BT-549
[5] = test system: RPMI-8226
[6] = test system: CAKI-1
[7] = test system: NCI-H226
[8] = test system: MDA-MB-435
[9] = test system: TK-10
[10] = test system: A549
[11] = test system: RXF 393
[12] = test system: NCI-H522
[13] = test system: SK-MEL-28
[14] = test system: IGROV-1
[15] = test system: EKVX
[16] = test system: HL-60
[17] = test system: NCI-H460
[18] = test system: HOP-92
[19] = test system: A498
[20] = test system: UO-31
[21] = test system: SW-620
[22] = test system: SF-539
[23] = test system: SK-MEL-5
[24] = test system: MOLT-4
[25] = test system: U-251
[26] = test system: KM12
[27] = test system: Hs-578T
[28] = test system: NCI-H23
[29] = test system: HOP-62
[30] = test system: SF-295
[31] = test system: K562
[32] = test system: LOX IMVI
[33] = test system: HCC 2998
[34] = test system: T47D
[35] = test system: PC-3
[36] = test system: SNB-19
[37] = test system: M14
[38] = test system: MDA-N
[39] = test system: SK-OV-3
[40] = test system: HT-29
[41] = test system: OVCAR-8
[42] = test system: OVCAR-5
[43] = test system: OVCAR-4
[44] = test system: HCT-116
[45] = test system: SF-268
[46] = test system: SR
[47] = test system: SNB-75
[48] = test system: UACC-257
[49] = test system: DU-145
[50] = test system: HCT-15
[51] = test system: COLO 205
[52] = test system: SK-MEL-2
[53] = test system: SN12C
[54] = test system: MDA-MB-231
[55] = test system: OVCAR-3
[56] = test system: UACC-62
[57] = test system: MCF7
[58] = test system: Malme-3M
[59] = test system: CCRF-CEM

## CC(=O)OC1C(O)COC(O[C@H]2CC[C@]34C[C@]35CC[C@]3(C)C([C@@]6(C)CC[C@@H](C(C)(C)O)O6)[C@@H](O)C[C@@]3(C)C5C[C@H](OC3OCC(O)C(O)C3O)[C@H]4C2(C)C)C1OC1OCC(O)C(O)C1O (stereo partly drawn)
[1]
  GI50: > 100 µM (inactive)
[2]
  GI50: > 100 µM (inactive)
[3]
  GI50: > 100 µM (inactive)
[4]
  GI50: > 100 µM (inactive)
[5]
  GI50: > 100 µM (inactive)
[6]
  GI50: > 100 µM (inactive)
[7]
  GI50: > 100 µM (inactive)
[8]
  GI50: > 100 µM (inactive)
[9]
  GI50: > 100 µM (inactive)
[10]
  GI50: > 100 µM (inactive)
[11]
  GI50: > 86.3 µM (inactive)
[12]
  GI50: > 100 µM (inactive)
[13]
  GI50: > 100 µM (inactive)
[14]
  GI50: > 100 µM (inactive)
[15]
  GI50: > 100 µM (inactive)
[16]
  GI50: 11.6 µM (inactive)
[17]
  GI50: > 100 µM (inactive)
[18]
  GI50: > 100 µM (inactive)
[19]
  GI50: > 100 µM (inactive)
[20]
  GI50: > 100 µM (inactive)
[21]
  GI50: > 100 µM (inactive)
[22]
  GI50: > 100 µM (inactive)
[23]
  GI50: > 100 µM (inactive)
[24]
  GI50: > 100 µM (inactive)
[25]
  GI50: > 100 µM (inactive)
[26]
  GI50: > 100 µM (inactive)
[27]
  GI50: > 100 µM (inactive)
[28]
  GI50: > 100 µM (inactive)
[29]
  GI50: > 100 µM (inactive)
[30]
  GI50: > 100 µM (inactive)
[31]
  GI50: > 100 µM (inactive)
[32]
  GI50: > 100 µM (inactive)
[33]
  GI50: > 100 µM (inactive)
[34]
  GI50: > 100 µM (inactive)
[35]
  GI50: > 100 µM (inactive)
[36]
  GI50: > 100 µM (inactive)
[37]
  GI50: > 100 µM (inactive)
[38]
  GI50: > 100 µM (inactive)
[39]
  GI50: > 100 µM (inactive)
[40]
  GI50: > 100 µM (inactive)
[41]
  GI50: > 100 µM (inactive)
[42]
  GI50: > 100 µM (inactive)
[43]
  GI50: > 100 µM (inactive)
[44]
  GI50: > 100 µM (inactive)
[45]
  GI50: > 100 µM (inactive)
[46]
  GI50: > 100 µM (inactive)
[47]
  GI50: > 100 µM (inactive)
[48]
  GI50: > 100 µM (inactive)
[49]
  GI50: > 100 µM (inactive)
[50]
  GI50: > 100 µM
[51]
  GI50: > 100 µM (inactive)
[52]
  GI50: > 100 µM (inactive)
[53]
  GI50: > 100 µM (inactive)
[54]
  GI50: > 100 µM (inactive)
[55]
  GI50: > 100 µM (inactive)
[56]
  GI50: > 100 µM (inactive)
[57]
  GI50: > 100 µM (inactive)
[58]
  GI50: > 100 µM (inactive)

## O=C1c2ccccc2-n2nnnc2C2CSCN12 (stereo not drawn)
[1]
  GI50: > 100 µM (inactive)
[2]
  GI50: > 100 µM (inactive)
[3]
  GI50: > 100 µM (inactive)
[4]
  GI50: > 100 µM (inactive)
[5]
  GI50: > 100 µM (inactive)
[6]
  GI50: > 100 µM (inactive)
[7]
  GI50: > 100 µM (inactive)
[8]
  GI50: > 100 µM (inactive)
[9]
  GI50: > 100 µM (inactive)
[10]
  GI50: > 100 µM (inactive)
[11]
  GI50: > 100 µM (inactive)
[12]
  GI50: > 100 µM (inactive)
[13]
  GI50: > 100 µM (inactive)
[14]
  GI50: > 100 µM (inactive)
[15]
  GI50: > 100 µM (inactive)
[17]
  GI50: > 100 µM (inactive)
[19]
  GI50: > 100 µM (inactive)
[20]
  GI50: > 100 µM (inactive)
[21]
  GI50: > 100 µM (inactive)
[23]
  GI50: > 100 µM (inactive)
[24]
  GI50: > 100 µM (inactive)
[25]
  GI50: > 100 µM (inactive)
[26]
  GI50: > 100 µM (inactive)
[27]
  GI50: > 100 µM (inactive)
[29]
  GI50: > 100 µM (inactive)
[30]
  GI50: > 100 µM (inactive)
[31]
  GI50: 56.2 µM (inactive)
[32]
  GI50: > 100 µM (inactive)
[33]
  GI50: > 100 µM (inactive)
[59]
  GI50: > 100 µM (inactive)
[34]
  GI50: > 100 µM (inactive)
[35]
  GI50: > 100 µM (inactive)
[36]
  GI50: > 100 µM (inactive)
[37]
  GI50: > 100 µM (inactive)
[38]
  GI50: > 100 µM (inactive)
[39]
  GI50: > 100 µM (inactive)
[40]
  GI50: > 100 µM (inactive)
[41]
  GI50: > 100 µM (inactive)
[42]
  GI50: > 100 µM (inactive)
[43]
  GI50: > 100 µM (inactive)
[44]
  GI50: > 100 µM (inactive)
[45]
  GI50: > 100 µM (inactive)
[46]
  GI50: > 100 µM (inactive)
[47]
  GI50: > 100 µM (inactive)
[48]
  GI50: > 100 µM (inactive)
[49]
  GI50: > 100 µM (inactive)
[50]
  GI50: > 100 µM
[51]
  GI50: > 100 µM (inactive)
[52]
  GI50: > 100 µM (inactive)
[53]
  GI50: > 100 µM (inactive)
[54]
  GI50: > 100 µM (inactive)
[55]
  GI50: > 100 µM (inactive)
[56]
  GI50: > 100 µM (inactive)
[57]
  GI50: > 100 µM (inactive)
[58]
  GI50: > 100 µM (inactive)
